Test [1] has as its system Dialister. Description: In vitro fermentation study 2: intestinal batch fermentation with fecal suspension, 16S rRNA Illumina sequencing and flow cytometry. The format is cell-based, Dialister spp. As to conditions: fermentation supernatant at 24 h, donor C, FIG. 1B. The procedure:
At the start of this intestinal batch fermentation incubation, all test ingredients were added from stock solutions to the modified nutritional medium, containing (g/l): 2.5 K2HPO4, 10.9 KH2PO4, 2 NaHCO3, 2 yeast extract, 2 peptone, 1 mucin, 0.5 cystein, 2 Tween 80, 2 glucose, 2 starch, 2 cellobiose, 0.1 NaCl, 0.01 MgSO4·7H2O, 0.01 CaCl2·6H2O, 0.05 hemin, 0.5 bile salts.
The following compounds were added from stock solutions prepared in water: • Beta-carotene, • Vitamin B3, • Vitamin B5, • Vitamin B7, • Fructooligosaccharides (positive control)
As a source of the microbial community, freshly prepared fecal suspension from a donor was added to the reactors. […] All tests, except the blanks, were performed in single repetition. Incubation conditions were 48 h at 37° C., under shaking (90 rpm) and anaerobic conditions.
Microbial composition: Illumina sequencing was performed at the start and after 24 h of incubation. The technique targets the 16S rRNA gene that consists of variable and conserved regions, spread over the gene. Due to their key role in protein expression, the conserved regions are characterized by very low evolutionary rates.
The methodology applied involves primers that span 2 hypervariable regions (V3-V4) of the 16S rRNA gene. Using a pair-end sequencing approach, sequencing of 2×250 bp results in 424 bp amplicons. Such fragments are taxonomically more informative as compared to smaller fragments. Samples that were analyzed with Illumina sequencing were also analyzed with flow cytometry to determine the number of total bacterial cells, thus allowing to convert the proportional values obtained with Illumina into absolute quantities. Samples were analyzed on a BDFacs verse. The samples were run using the high flow rate. Bacterial cells were separated from medium debris and signal noise by applying a threshold level of 200 on the SYTO channel. Proper parent and daughter gates were set to determine all populations.
For orientation: A flow cytometer gives signals particle by particle.

In test [2] the test system is Dialister. Description: In vitro fermentation study 1: intestinal batch fermentation with fecal suspension, shotgun metagenome sequencing. As to conditions: fermentation supernatant at 24 hours; all tested concentrations (0.2x, 1x, 5x); FIG. 1A. It counts as cell-based, Dialister spp. The procedure: At the start of this intestinal batch fermentation incubation, all test ingredients were added from stock solutions to the modified nutritional medium, containing (g/l): 2.5 K2HPO4, 10.9 KH2PO4, 2 NaHCO3, 2 yeast extract, 2 peptone, 1 mucin, 0.5 cysteine, 2 Tween 80, 2 glucose, 2 starch, 2 cellobiose, 0.1 NaCl, 0.01 MgSO4·7H2O, 0.01 CaCl2·6H2O, 0.05 hemin, 0.5 bile salts.
The following compounds were added from stock solutions prepared in water for vitamin B2 and B9, and in ethanol for vitamin K1, DHA and EPA:
Each compound was tested in three different concentrations. As a source of the microbial community, freshly prepared fecal suspension from a donor was added to the reactors. […] All tests, except the blanks, were performed in single repetition. Incubation conditions were 48 h at 37° C., under shaking (90 rpm) and anaerobic conditions.
Microbial composition: Total DNA was extracted from all fermentation samples collected throughout the study using the QIAamp DNA stool minikit (Qiagen, Crawley, United Kingdom) according to the manufacturer's instructions, apart from addition of a bead-beating step and increasing the lysis temperature to 95° C. as described previously. After DNA isolation, DNA was quantified using the Qubit High Sensitivity DNA assay (Thermo Fisher). Whole metagenome libraries were then prepared using the Illumina Nextera XT kit (Illumina) in accordance with the manufacturer's instructions, with the following modifications: Firstly, tagmentation time was increased to 7 min and secondly, following incorporation of indices and Ampure purification of the products, the samples were each individually sized by running on an Agilent High Sensitivity Chip (Agilent) and quantified using the Qubit High Sensitivity DNA assay (Thermo Fisher) in accordance with Teagasc Sequencing Platform SOPs. […] Delivered raw FASTQ sequence files were quality checked as follows: poor quality and duplicate read removal, as well as trimming was implemented using a combination of SAM and Picard tools. Taxonomy was assigned to the reads using the Metaphlan2 software.

The subject of the next test is fecal Dialister. Description: Clinical study: randomized, double-blind, placebo-controlled study of colon-targeted vitamins, fecal microbial composition. Conditions: human, colon-release capsule once daily for four weeks, fecal samples; FIG. 1C. The format is in vivo. An excerpt:
Twelve participants were allocated to each of the six vitamin groups, and 24 participants allocated to the placebo group. All 96 participants completed the intervention. To be considered eligible for enrollment into the study, participants have to be able to give written informed consent; be aged between 20 and 50 years of age; have a BMI of between 18.5-30 Kg/m2; have a stable body weight (<5% change) over the past 3-months; be in generally good health, as determined by the investigator; have not consumed dietary supplements, prebiotic, probiotic, dietary or fiber-rich supplements within 4 weeks prior to baseline visit and be willing to avoid these supplements until the end of the study; be willing to avoid liver consumption for the duration for the study, be willing to maintain their current level of physical activity for the duration of the study; and be willing to consume the IP daily for the duration of the study. […] Before the randomization visit, participants food frequency questionnaires were analyzed to ensure their typical fiber intake is <30 g fiber/day. […] At the baseline visit (Visit 2), participants retuned a fecal samples collected in the previous 48 hours and eligibility was assessed. […] Participants returned their IP and compliance was assessed. […]

These results are taken from patent publication US12728109B2, “Method of increasing the population of Dialister spp. in the gut microbiome” (DSM IP ASSETS B.V., priority 2020, dated 2026).

For `CC1=C(/C=C/C(C)=C/C=C/C(C)=C/C=C/C=C(C)/C=C/C=C(C)/C=C/C2=C(C)CCCC2(C)C)C(C)(C)CCC1` [beta-carotene, Beta-carotene], the “Dialister relative abundances compared to control” value (shortened to “Dialister relative abundances”) with Dialister [1] (all tested concentrations) was “increase”.

For `Cc1cc2nc3c(=O)[nH]c(=O)nc-3n(C[C@H](O)[C@H](O)[C@H](O)CO)c2cc1C` [vitamin B2, Riboflavin], the “Dialister relative abundances” value in the test on Dialister [2] is reported as “substantial increase”.

Consider `NC(=O)c1cccnc1` [vitamin B3, Niacinamide], for which the “Dialister relative abundances” value in the test with Dialister [1] (all tested concentrations) was “no distinct increase”.

For the molecule `CC(C)(CO)[C@@H](O)C(=O)NCCC(=O)O` [vitamin B5, Pantothenic acid], the “Dialister relative abundances” value in the test with Dialister [1] (at 0.2× and 5×) was “increase”.

As for `O=C(O)CCCC[C@@H]1SC[C@@H]2NC(=O)N[C@@H]21` [vitamin B7, Biotin], the “Dialister relative abundances” value in the test on Dialister [1] (all tested concentrations) is recorded as “no distinct increase”.

As for `Nc1nc2ncc(CNc3ccc(C(=O)N[C@@H](CCC(=O)O)C(=O)O)cc3)nc2c(=O)[nH]1` [vitamin B9, Folic acid], in the test on Dialister [2], the “Dialister relative abundances” value is “no distinct increase”.

As for `C=C1CC[C@H](O)C/C1=C/C=C1\CCC[C@]2(C)[C@@H]([C@H](C)CCCC(C)C)CC[C@@H]12` [vitamin D3, cholecalciferol], in the test on fecal Dialister, the “Dialister relative abundance compared to placebo” value is “increase”.

For `CC1=C(C/C=C(\C)CCC[C@H](C)CCC[C@H](C)CCCC(C)C)C(=O)c2ccccc2C1=O` [vitamin K1], in the test on Dialister [2], the “Dialister relative abundances” value is given as “substantial increase”.

As to vitamin A, the “Dialister relative abundance compared to placebo” value in the test on fecal Dialister is “increase”.
